# Test system: HLA-A2402 transgenic mouse
# Assay: Evaluation of CTL inducing ability in vivo in HLA-A2402 transgenic mouse (IFNγ ELISPOT assay of splenocytes)
# Conditions: intradermal emulsion with Montanide ISA 51 VG, tail base, two sites, splenocytes one week after administration stimulated with peptide of SEQ ID NO: 4 at 10 μg/ml, FIG. 1
# Protocol: The solution was diluted with water for injection to a concentration of 5.0 mg/mL, and then converted to an emulsion by addition of an equal volume of Montanide ISA 51 VG. […] One week after the administration, the mice were sacrificed with CO2 gas. Splenocytes were harvested from spleens removed from the mice. […] In particular, an ELISPOT plate was treated with an anti-mouse-IFNγ antibody on the day before preparation of the splenocyte samples. On the next day, the plate was blocked by treatment with an RPMI 1640 medium with 10% FBS. […] For in vitro stimulation of the cells, the peptide of SEQ ID NO: 4 was dissolved in DMSO at a concentration of 40 mg/ml, diluted with RPMI 1640 with 10% FBS to 40 μg/ml, and added to the splenocyte-containing wells at a final concentration of 10 μg/ml. […] Then, after removal of the culture medium from the wells, the ELISPOT plate was subjected to treatment for cell staining in accordance with the manufacturer's protocol. Stained spots were counted on ImmunoSpot Analyzer (C.T.L.).
sequence,measurement,value
"CYTWNQMNL [peptide of SEQ ID NO: 4, HLA-A2402-restricted WT1 peptide]",induction of CTLs responsive to the peptide of SEQ ID NO: 4 (IFNγ-producing splenocytes),induced CTLs responsive to the peptide of SEQ ID NO: 4

# Reference: patent publication US20200368338A1, “CONJUGATE OF WT1-DERIVED PEPTIDES AND COMPOSITION COMPRISING THE SAME” (SUMITOMO DAINIPPON PHARMA CO., LTD., priority 2017, published 2020)
